Results from PubChem BioAssay (NCI).
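Cultured in 96-well plates, cells were exposed to test compound for 48 hours across five concentrations. At the TGI there is no net growth.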

Columns and labels:
Assay in all cases: NCI tumour cell line growth inhibition, 48 h
UACC-257 melanoma = test system: UACC-257 melanoma
TK-10 renal = test system: TK-10 renal
HOP-92 NSCLC = test system: HOP-92 NSCLC
SF-295 CNS = test system: SF-295 CNS
HCT-15 colon = test system: HCT-15 colon
UO-31 renal = test system: UO-31 renal
HCC-2998 colon = test system: HCC-2998 colon
MOLT-4 leukemia = test system: MOLT-4 leukemia
A498 renal = test system: A498 renal
OVCAR-4 ovarian = test system: OVCAR-4 ovarian
SNB-19 CNS = test system: SNB-19 CNS
HS 578T breast = test system: HS 578T breast
SK-MEL-28 melanoma = test system: SK-MEL-28 melanoma
HCT-116 colon = test system: HCT-116 colon
HOP-62 NSCLC = test system: HOP-62 NSCLC
MDA-MB-231 breast = test system: MDA-MB-231 breast
COLO 205 colon = test system: COLO 205 colon
ACHN renal = test system: ACHN renal
NCI/ADR-RES ovarian = test system: NCI/ADR-RES ovarian
HL-60(TB) leukemia = test system: HL-60(TB) leukemia
MALME-3M melanoma = test system: MALME-3M melanoma
IGROV1 ovarian = test system: IGROV1 ovarian
SN12C renal = test system: SN12C renal
SNB-75 CNS = test system: SNB-75 CNS
CCRF-CEM leukemia = test system: CCRF-CEM leukemia
K-562 leukemia = test system: K-562 leukemia
NCI-H522 lung = test system: NCI-H522 lung
UACC-62 melanoma = test system: UACC-62 melanoma
BT-549 breast = test system: BT-549 breast
RXF 393 renal = test system: RXF 393 renal
PC-3 prostate = test system: PC-3 prostate
A549 NSCLC = test system: A549 NSCLC
HT29 colon = test system: HT29 colon
EKVX NSCLC = test system: EKVX NSCLC
U251 CNS = test system: U251 CNS
NCI-H226 lung = test system: NCI-H226 lung
MDA-MB-435 = test system: MDA-MB-435
OVCAR-3 ovarian = test system: OVCAR-3 ovarian
KM12 colon = test system: KM12 colon
SK-MEL-5 melanoma = test system: SK-MEL-5 melanoma
SR leukemia = test system: SR leukemia
NCI-H460 lung = test system: NCI-H460 lung
OVCAR-8 ovarian = test system: OVCAR-8 ovarian
DU-145 prostate = test system: DU-145 prostate
CAKI-1 renal = test system: CAKI-1 renal
NCI-H23 lung = test system: NCI-H23 lung
SF-539 CNS = test system: SF-539 CNS
SF-268 CNS = test system: SF-268 CNS
SK-OV-3 ovarian = test system: SK-OV-3 ovarian
SW-620 colon = test system: SW-620 colon
LOX IMVI melanoma = test system: LOX IMVI melanoma
T-47D breast = test system: T-47D breast
MDA-N = test system: MDA-N
MCF7 breast = test system: MCF7 breast
786-0 renal = test system: 786-0 renal
RPMI-8226 leukemia = test system: RPMI-8226 leukemia
OVCAR-5 ovarian = test system: OVCAR-5 ovarian
SK-MEL-2 melanoma = test system: SK-MEL-2 melanoma

O=c1c2ccccc2n2n1Cc1ccccc1C2
TGI (UACC-257 melanoma): > 100 µM | TGI (TK-10 renal): > 100 µM | TGI (HOP-92 NSCLC): > 100 µM | TGI (SF-295 CNS): > 100 µM | TGI (HCT-15 colon): > 100 µM | TGI (UO-31 renal): > 100 µM | TGI (HCC-2998 colon): > 100 µM | TGI (MOLT-4 leukemia): > 100 µM | TGI (A498 renal): > 100 µM | TGI (OVCAR-4 ovarian): > 100 µM | TGI (SNB-19 CNS): > 100 µM | TGI (HS 578T breast): > 100 µM | TGI (SK-MEL-28 melanoma): > 100 µM | TGI (HCT-116 colon): > 100 µM | TGI (HOP-62 NSCLC): > 100 µM | TGI (MDA-MB-231 breast): > 100 µM | TGI (COLO 205 colon): > 100 µM | TGI (ACHN renal): > 100 µM | TGI (NCI/ADR-RES ovarian): > 100 µM | TGI (HL-60(TB) leukemia): > 100 µM | TGI (MALME-3M melanoma): > 100 µM | TGI (IGROV1 ovarian): > 100 µM | TGI (SN12C renal): > 100 µM | TGI (SNB-75 CNS): > 100 µM | TGI (CCRF-CEM leukemia): > 100 µM | TGI (K-562 leukemia): > 100 µM | TGI (NCI-H522 lung): > 100 µM | TGI (UACC-62 melanoma): > 100 µM | TGI (BT-549 breast): > 100 µM | TGI (RXF 393 renal): > 100 µM | TGI (PC-3 prostate): > 100 µM | TGI (A549 NSCLC): > 100 µM | TGI (HT29 colon): > 100 µM | TGI (EKVX NSCLC): > 100 µM | TGI (U251 CNS): > 100 µM | TGI (NCI-H226 lung): > 100 µM | TGI (MDA-MB-435): > 100 µM | TGI (OVCAR-3 ovarian): > 100 µM | TGI (KM12 colon): > 100 µM | TGI (SK-MEL-5 melanoma): > 100 µM | TGI (SR leukemia): > 100 µM | TGI (NCI-H460 lung): > 100 µM | TGI (OVCAR-8 ovarian): > 100 µM | TGI (DU-145 prostate): > 100 µM | TGI (CAKI-1 renal): > 100 µM | TGI (NCI-H23 lung): > 100 µM | TGI (SF-539 CNS): > 100 µM | TGI (SF-268 CNS): > 100 µM | TGI (SK-OV-3 ovarian): > 100 µM | TGI (SW-620 colon): > 100 µM | TGI (LOX IMVI melanoma): > 100 µM | TGI (T-47D breast): > 100 µM | TGI (MDA-N): > 100 µM | TGI (MCF7 breast): > 100 µM | TGI (786-0 renal): > 100 µM | TGI (RPMI-8226 leukemia): > 100 µM

O=C1CSC(c2ccccc2[N+](=O)[O-])N1c1ccc(-n2c(-c3ccccc3)nc3ccccc3c2=O)cc1 (stereo not drawn)
TGI (UACC-257 melanoma): > 100 µM | TGI (TK-10 renal): > 100 µM | TGI (HOP-92 NSCLC): 60.2 µM | TGI (SF-295 CNS): 64.3 µM | TGI (HCT-15 colon): > 100 µM | TGI (UO-31 renal): > 100 µM | TGI (HCC-2998 colon): > 100 µM | TGI (MOLT-4 leukemia): > 100 µM | TGI (A498 renal): > 100 µM | TGI (OVCAR-4 ovarian): > 100 µM | TGI (SNB-19 CNS): > 100 µM | TGI (HS 578T breast): 54.8 µM | TGI (SK-MEL-28 melanoma): > 100 µM | TGI (HCT-116 colon): > 100 µM | TGI (HOP-62 NSCLC): 54.1 µM | TGI (MDA-MB-231 breast): > 100 µM | TGI (COLO 205 colon): > 100 µM | TGI (OVCAR-5 ovarian): > 100 µM | TGI (ACHN renal): > 100 µM | TGI (NCI/ADR-RES ovarian): > 100 µM | TGI (HL-60(TB) leukemia): > 100 µM | TGI (MALME-3M melanoma): > 100 µM | TGI (IGROV1 ovarian): > 100 µM | TGI (SN12C renal): > 100 µM | TGI (SNB-75 CNS): 34.9 µM | TGI (CCRF-CEM leukemia): > 100 µM | TGI (K-562 leukemia): > 100 µM | TGI (NCI-H522 lung): > 100 µM | TGI (UACC-62 melanoma): > 100 µM | TGI (BT-549 breast): > 100 µM | TGI (PC-3 prostate): > 100 µM | TGI (A549 NSCLC): > 100 µM | TGI (SK-MEL-2 melanoma): > 100 µM | TGI (HT29 colon): > 100 µM | TGI (EKVX NSCLC): > 100 µM | TGI (U251 CNS): 32.7 µM | TGI (NCI-H226 lung): 89.2 µM | TGI (MDA-MB-435): > 100 µM | TGI (OVCAR-3 ovarian): > 100 µM | TGI (KM12 colon): > 100 µM | TGI (SK-MEL-5 melanoma): > 100 µM | TGI (SR leukemia): > 100 µM | TGI (NCI-H460 lung): > 100 µM | TGI (OVCAR-8 ovarian): > 100 µM | TGI (DU-145 prostate): > 100 µM | TGI (CAKI-1 renal): > 100 µM | TGI (NCI-H23 lung): > 100 µM | TGI (SF-539 CNS): > 100 µM | TGI (SF-268 CNS): > 100 µM | TGI (SK-OV-3 ovarian): 28.3 µM | TGI (SW-620 colon): > 100 µM | TGI (LOX IMVI melanoma): > 100 µM | TGI (T-47D breast): 98.4 µM | TGI (MDA-N): > 100 µM | TGI (MCF7 breast): > 100 µM | TGI (786-0 renal): > 100 µM | TGI (RPMI-8226 leukemia): > 100 µM
